{
  "source": "patent US20230077704A1",
  "about": "“APPLICATION OF NITAZOXANIDE AND ACTIVE FORM THEREOF, TIZOXANIDE, IN TREATMENT OF SARS-COV-2 INFECTION” (priority 2020, published 2023)",
  "key": {"[1]": {"system": "SARS-CoV-2 (2019-nCoV) virus", "format": "cell-based", "conditions": "for Copy number of virus genome: 100TCID50, 48 hours, supernatant"}, "Vero-E6 cells": {"system": "Vero-E6 cells", "assay": "Cytotoxicity test of drugs, CCK-8 kit", "format": "cell-based", "conditions": "48 hours; for Cell viability (% of vehicle control): Vero-E6 cells", "method": "The cytotoxicity test of drugs was carried out by using CCK-8 kit (Beyotime). Specific steps were as follows:\n(1) 1×10^4 Vero-E6 cells (ATCC) were inoculated in a 96-well plate and cultured at 37° C. for 8 hours.\n(2) The drug was diluted with DMSO to an appropriate concentration of mother solution, and then diluted with MEM (purchased from Gibco company, Catalog No. 10370021) medium containing 2% FBS (purchased from Gibco company, Catalog No. 16000044) to the same concentration as that for the drug treatment. The original medium in the 96-well plate was discarded, 100 μL of the drug-containing MEM medium was taken and added to the cells, and three replicate wells were set for each concentration. A vehicle control (adding DMSO and medium to cells in wells, without adding drug) and a blank control (adding DMSO and medium to the wells, without cells) were set up. After the drug was added, the cells were cultured at 37° C. for 48 hours.\n(3) 20 μL of CCK-8 solution (Beyotime) was added to the well to be tested, mixed gently without generating bubbles, and cultured subsequently at 37° C. for 2 hours. OD450 was read on a microplate reader (purchased from Molecular Devices, model: SpectraMax M5), and the cell viability was calculated:\nCell viability (%)=(A(drug treatment group)−A(blank control))/(A(vehicle control)−A(blank control))×100%\nWherein, A was the reading of the microplate reader."}, "influenza": {"system": "influenza", "conditions": "600 mg twice daily for five days, adults and adolescents; cited from earlier work"}, "rotavirus": {"system": "rotavirus", "conditions": "clinical trials; cited from earlier work"}},
  "note": "Entries after “also recorded” stand apart in the source; their conditions may differ. Where two headings read alike, the source gives them in different places.",
  "data": [
    {"smiles": "CC(=O)Oc1ccccc1C(=O)Nc1ncc([N+](=O)[O-])s1", "note": "[nitazoxanide, 2-(acetyloxy)-N-(5-nitro-2-thiazolyl) benzamide]", "values": [
      {"measurement": "Copy number of virus genome", "setting": "[1]; 0.14 μM, Vero E6 cells", "value": 820470664.5},
      {"measurement": "Copy number of virus genome", "setting": "[1]; 0.41 μM, Vero E6 cells", "value": 363337006},
      {"measurement": "Copy number of virus genome", "setting": "[1]; 1.23 μM, Vero E6 cells", "value": 76022948.5},
      {"measurement": "Copy number of virus genome", "setting": "[1]; 3.70 μM, Vero E6 cells", "value": 21027512.5},
      {"measurement": "Copy number of virus genome", "setting": "[1]; 11.11 μM, Vero E6 cells", "value": 5389366.5},
      {"measurement": "Copy number of virus genome", "setting": "[1]; 33.33 μM, Vero E6 cells", "value": 1424671.5},
      {"measurement": "Copy number of virus genome", "setting": "[1]; 100 μM, Vero E6 cells", "value": 1220444.5},
      {"measurement": "Viral RNA load in the cells", "setting": "[1]; Vero E6 cells, 48 hours after infection by SARS-CoV-2, FIG. 1(a)", "value": "can reduce the viral RNA load"},
      {"measurement": "Inhibition of replication of SARS-CoV-2 virus genome in the infected supernatant", "setting": "[1]; at concentrations of 100 μM, 33 μM, 11.1 μM and 3.7 μM", "value": "could effectively inhibit the replication"},
      {"measurement": "Cell viability (% of vehicle control)", "setting": "Vero-E6 cells; 0.14 μM", "value": "98.78 % of vehicle control"},
      {"measurement": "Cell viability (% of vehicle control)", "setting": "Vero-E6 cells; 0.41 μM", "value": "101.40 % of vehicle control"},
      {"measurement": "Cell viability (% of vehicle control)", "setting": "Vero-E6 cells; 1.23 μM", "value": "98.54 % of vehicle control"},
      {"measurement": "Cell viability (% of vehicle control)", "setting": "Vero-E6 cells; 3.70 μM", "value": "96.47 % of vehicle control"},
      {"measurement": "Cell viability (% of vehicle control)", "setting": "Vero-E6 cells; 11.11 μM", "value": "96.03 % of vehicle control"},
      {"measurement": "Cell viability (% of vehicle control)", "setting": "Vero-E6 cells; 33.33 μM", "value": "93.58 % of vehicle control"},
      {"measurement": "Cell viability (% of vehicle control)", "setting": "Vero-E6 cells; 100 μM", "value": "93.29 % of vehicle control"},
      {"measurement": "Toxic effect on the cells (cytotoxicity)", "setting": "Vero-E6 cells; all test concentrations", "value": "no cytotoxicity was observed; also recorded: no toxic effect on the cells"},
      {"measurement": "Duration of common influenza", "setting": "influenza", "value": "reduced the duration of common influenza"},
      {"measurement": "Treatment of diarrhea in children caused by rotavirus infection", "setting": "rotavirus", "value": "can effectively treat diarrhea"}
    ]}
  ]
}
